Data published in patent US9237744B2, “Preservative solution for cells, tissues and organs containing rare sugar and preservative method thereof” (NATIONAL UNIVERSITY CORPORATION KAGAWA UNIVERSITY, priority 2004, dated 2016).

Columns and labels:
[1] = test system: HFB (human fibroblast); test: Cell growth after thawing of freeze-preserved cells, MTT assay (Example 1); type: cell-based; details: culture medium plus sugar, in comparison with other cases (FIG. 2)
Method: (§1) 1. Cells used: Hela (human cervical cancer), OVCAR-3 (human ovarian cancer), HuH-7 (human liver cancer), HaCaT (human skin keratinocyte), HFB (human fibroblast) and NIH3T3 (mouse fibroblast). Saccharides D-allose and the like were added to culture medium, Cell Banker (commercially available preservative solution) and DMSO at concentrations of 25 mM and 50 mM. Monosaccharides such as D-glucose, D-fructose, D-mannose and D-galactose which are present in nature in large quantities and D-allose, D-psicose, D-altrose, allitol, D-talitol and L-sorbose as rare sugars were used. Further, trehalose as disaccharide was used. The cells were preserved for 24 hours by being frozen at −80° C. 2) Cell growth: One day later, the cells were thawed, and 0.25˜2×10^4 cells/well were spread on 96-well plate with 0.1 mL medium. After a prescribed period of time, the cell growth was measured by MTT assay.

[2] = test system: HFB cells and NIH3T3 cells; test: Proliferation ability after freeze-preservation with Cell Banker containing rare sugar (Example 1); type: cell-based, human, mouse; details: sugar added to Cell Banker, versus Cell Banker alone (FIG. 3)
Method: as §1, with “assay. 3) Then, the rare sugar was added to Cell Banker which was widely used for freeze-preservation of cells, and an effect of preservability was comparatively studied.” for “assay.”

[3] = test system: Hela, OVCAR-3, HaCaT, HFB and NIH3T3 cells; test: Cell growth after thawing of cells freeze-preserved at optimum concentrations, MTT assay (Example 2); type: cell-based, human, mouse; details: freeze-preserved 24 hours at optimum concentration, versus other cases (FIG. 8)
Method: (§2) 1. Cells used: Hela (human cervical cancer), OVCAR-3 (human ovarian cancer), HaCaT (human skin keratinocyte), HFB (human fibroblast) and NIH3T3 (mouse fibroblast). Saccharides D-allose and the like were added to culture medium, Cell Banker (commercially available preservative solution) and DMSO at concentrations of 0.2, 0.4, 0.6, 0.8 and 1M. Monosaccharides such as D-glucose, D-fructose, D-mannose and D-galactose which are present in nature in large quantities and D-allose, D-altrose, D-psicose, L-psicose, D-sorbose, L-sorbose, D-tagatose, L-tagatose and L-fructose as rare sugars were used. Further, trehalose as disaccharide was used. The cells frozen with D-allose were freeze-preserved at −80° C. and in liquid nitrogen for 24 hours, 1 week and 4 weeks. 2) Cell growth: The cells were freeze-preserved with D-allose and trehalose at optimum concentrations for 24 hours, thawed, and spread on a 96-well plate such that the concentration was 0.5-1×10^4 cells/well/0.1 ml. After a prescribed period of time, the cell growth was measured by MTT assay.

[4] = test system: Hela, OVCAR-3, HaCaT, HFB and NIH3T3 cells; test: Survival rate of cells after freeze-preservation at high sugar concentration, trypan blue (Example 2); type: cell-based, human, mouse; details: sugar-containing medium in comparison with medium alone (FIG. 7)
Method: as §2, with “1) Survival rate of cells:” for “2) Cell growth:”, “were” for “were freeze-preserved with D-allose and trehalose at optimum concentrations for 24 hours,”, “the survival rate was estimated by” for “spread on”, “trypan blue dying method.” for “96-well plate such that the concentration was 0.5-1×10^4 cells/well/0.1 ml. After a prescribed period of time, the cell growth was measured by MTT assay.”

SMILES: OC[C@H]1O[C@H](O[C@H]2O[C@H](CO)[C@@H](O)[C@H](O)[C@H]2O)[C@H](O)[C@@H](O)[C@@H]1O [trehalose, reference compound]
- growth rate of cells after thawing [1]: nearly the same effect was obtained
- proliferation ability after freeze-preservation [2]: nearly the same effect was obtained
- growth rate of cells after thawing [3]: nearly the same effect was obtained
- number of cells survived (trypan blue dying) [4]: the same
